In the experiment the test system is P388 leukemia ip, CD2F1 mice, survival T/C. Briefly: NCI In Vivo Anticancer Drug Screen. Data for tumor model P388 Leukemia (intraperitoneal) in CD2F1 (CDF1) mice. As to conditions: endpoint: median survival time, higher = longer survival. The method, boiled down:
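Mice carrying the transplanted tumor received test compound or vehicle. Survival was recorded in each group, and the value is the treated-group measurement divided by that of the vehicle-treated control group.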

Where [1] appears, read: dose: 50.0 mg/kg/injection, schedule: Q01DX005 (ip), vehicle: Klucel (hydroxypropylcellulose) (HPC).
[2] abbreviates: dose: 50.0 mg/kg/injection, schedule: Q01DX005 (ip), vehicle: saline.
[3] abbreviates: dose: 100.0 mg/kg/injection, schedule: Q01DX005 (ip), vehicle: Klucel (hydroxypropylcellulose) (HPC).
Where [4] appears, read: dose: 200.0 mg/kg/injection, schedule: Q01DX005 (ip), vehicle: Klucel (hydroxypropylcellulose) (HPC).
Where [5] appears, read: dose: 100.0 mg/kg/injection, schedule: Q04DX003 (ip), vehicle: saline with Tween-80.
Where [6] appears, read: dose: 50.0 mg/kg/injection, schedule: Q01DX009 (ip), vehicle: Klucel (hydroxypropylcellulose) (HPC).
Setting [7] is: dose: 100.0 mg/kg/injection, schedule: Q01DX009 (ip), vehicle: Klucel (hydroxypropylcellulose) (HPC).
Where [8] appears, read: dose: 200.0 mg/kg/injection, schedule: Q01DX009 (ip), vehicle: Klucel (hydroxypropylcellulose) (HPC).
Setting [9] is: dose: 50.0 mg/kg/injection, schedule: Q01DX009 (ip), vehicle: saline with Tween-80.
[10] abbreviates: dose: 100.0 mg/kg/injection, schedule: Q01DX009 (ip), vehicle: saline with Tween-80.
Setting [11] is: dose: 25.0 mg/kg/injection, schedule: Q01DX009 (ip), vehicle: Klucel (hydroxypropylcellulose) (HPC).
The mark [12] stands for this setting: dose: 25.0 mg/kg/injection, schedule: Q01DX009 (ip), vehicle: saline with Tween-80.

“And” between values parts separate entries of the source, which are not always exact repeats. Identical values can stand only once. Toxic doses and inconclusive results are not listed.

Take `CNC(=O)c1n[nH]c(=S)[nH]c1=O`: the T/C reads like this: under setting [1], 111 % of control; under setting [2], 100 % of control; under setting [3], 104 % of control; (dose: 100.0 mg/kg/injection, schedule: Q01DX005 (ip), vehicle: saline) 101 % of control; under setting [4], 101 % of control; (dose: 200.0 mg/kg/injection, schedule: Q01DX005 (ip), vehicle: saline) 101 % of control.
For `CS(=O)(=O)N(CC(=O)O)Cc1ccc(Cl)c(Cl)c1`, the T/C is, setting by setting: (dose: 25.0 mg/kg/injection, schedule: Q04DX003 (ip), vehicle: Klucel + Tween-80) 92 % of control; (dose: 50.0 mg/kg/injection, schedule: Q04DX003 (ip), vehicle: Klucel + Tween-80) 100 % of control; (dose: 100.0 mg/kg/injection, schedule: Q04DX003 (ip), vehicle: Klucel + Tween-80) 98 % of control; (dose: 200.0 mg/kg/injection, schedule: Q04DX003 (ip), vehicle: Klucel + Tween-80) 91 % of control.
Take `O=C(OC1C2COC(O2)C(OC(=O)c2ccccc2)C1OC(=O)c1ccccc1)c1ccccc1` (centres undefined): the T/C under setting [1] was 104 % of control, the T/C under setting [3] was 101 % of control and the T/C under setting [4] was 104 % of control.
For `O=C1CNC(=O)c2cc(N=Cc3ccccc3O)ccc2N1`, the T/C under setting [5] was 111 % of control; the T/C (dose: 200.0 mg/kg/injection, schedule: Q04DX003 (ip), vehicle: saline with Tween-80) was 114 % of control; the T/C (dose: 400.0 mg/kg/injection, schedule: Q04DX003 (ip), vehicle: saline with Tween-80) is 104 % of control.
On to `COc1cc(/C=N\NC(=O)C(C)SC(C)C(=O)N/N=C/c2cc(OC)c(OC)c(OC)c2)cc(OC)c1OC` (centres undefined), for which the T/C under setting [1] is 93 % of control, the T/C under setting [3] is 88 % of control and the T/C under setting [4] is 90 % of control.
`O=C(CCBr)c1ccc(Cl)cc1`: the T/C by setting is: (dose: 25.0 mg/kg/injection, schedule: Q04DX003 (ip), vehicle: saline with Tween-80) 107 % of control; (dose: 50.0 mg/kg/injection, schedule: Q04DX003 (ip), vehicle: saline with Tween-80) 103 % of control; under setting [5], 100 % of control.
Consider `COc1ccc([N+](=O)[O-])c(C#N)c1`, for which the T/C is, setting by setting: (dose: 100.0 mg/kg/injection, schedule: Q04DX003 (ip), vehicle: saline) 98 % of control; (dose: 200.0 mg/kg/injection, schedule: Q04DX003 (ip), vehicle: saline) 93 % of control; (dose: 400.0 mg/kg/injection, schedule: Q04DX003 (ip), vehicle: saline) 100 % of control.
Turning to `COc1c2c(cc3c1OCO3)[C@]13C=C[C@H](OC)C[C@H]1N(C2)CC3O` (some centres undefined), the T/C is 90 % of control (dose: 0.63 mg/kg/injection, schedule: Q01DX009 (ip), vehicle: saline with Tween-80); 100 % of control (dose: 1.25 mg/kg/injection, schedule: Q01DX001 (ip), vehicle: saline); 86 % of control (dose: 1.25 mg/kg/injection, schedule: Q01DX009 (ip), vehicle: saline with Tween-80); 109 % of control (dose: 2.5 mg/kg/injection, schedule: Q01DX001 (ip), vehicle: saline); 90 % of control (dose: 5.0 mg/kg/injection, schedule: Q01DX001 (ip), vehicle: saline with Tween-80).
Regarding `O=C(O)CC12CC3CC(CC(=O)O)(C1)CC(CC(=O)O)(C3)C2`, the T/C was 109 % of control under setting [6], 108 % of control under setting [7] and 111 % of control under setting [8].
Consider `CCOC(=O)c1cnc2cc3c(cc2c1N=[N+]=[N-])OCO3`, for which the T/C is 95 % of control (dose: 60.0 mg/kg/injection, schedule: Q01DX005 (ip), vehicle: saline with Tween-80); 90 % of control (dose: 120.0 mg/kg/injection, schedule: Q01DX005 (ip), vehicle: saline with Tween-80); 87 % of control (dose: 240.0 mg/kg/injection, schedule: Q01DX005 (ip), vehicle: saline with Tween-80).
`CC(C)COC(CNC(=O)c1ccccc1)C(Cl)(Cl)Cl` (centres undefined): the T/C by setting is: under setting [9], 100 % of control; under setting [10], 100 % of control; (dose: 200.0 mg/kg/injection, schedule: Q01DX009 (ip), vehicle: saline with Tween-80) 110 % of control.
As for `COc1cccc2c1C(=O)c1c(O)c3c(c(O)c1C2=O)C[C@@](O)(c1csc(-c2ccccc2)n1)C[C@@H]3OC1CC(N)C(O)C(C)O1` (some centres undefined), the T/C reads like this: (dose: 1.56 mg/kg/injection, schedule: Q01DX009 (ip), vehicle: water) 174 % of control; (dose: 3.13 mg/kg/injection, schedule: Q01DX009 (ip), vehicle: water) 165 % of control; (dose: 6.25 mg/kg/injection, schedule: Q01DX009 (ip), vehicle: water) 182 % of control.
Take `C=Cc1c(C)c(O)cc2c1-c1ccc(O)c(C)c1CC2`: the T/C reads like this: under setting [11], 104 % of control; under setting [6], 100 % of control; under setting [7], 92 % of control; under setting [8], 93 % of control.
As for `c1ccc2c(Nc3ccc(C4=NCCN4)cc3)nnc(Nc3ccc(C4=NCCN4)cc3)c2c1`, the T/C is 100 % of control (dose: 3.13 mg/kg/injection, schedule: Q04DX003 (ip), vehicle: saline with Tween-80); 110 % of control (dose: 6.25 mg/kg/injection, schedule: Q04DX003 (ip), vehicle: saline with Tween-80); 110 % of control (dose: 12.5 mg/kg/injection, schedule: Q04DX003 (ip), vehicle: saline with Tween-80); 195 % of control under setting [12]; 210 % of control under setting [9]; 250 % of control under setting [10]. Moreover, under setting [5], the T/C is 154 % of control and 168 % of control.
As to `COc1ccc2c(c1)C(=O)/C(=N\O)C2`, the T/C is, setting by setting: under setting [1], 92 % of control; under setting [3], 101 % of control; under setting [4], 92 % of control.
For `COc1ccc(/C=C/C(=O)OC2CC34CCNC35CC(OC5(OC)C2OC)c2ccc(OC)c(O)c24)cc1O` (centres undefined), the T/C was 100 % of control (dose: 12.5 mg/kg/injection, schedule: Q01DX005 (ip), vehicle: Klucel (hydroxypropylcellulose) (HPC)); 100 % of control (dose: 25.0 mg/kg/injection, schedule: Q01DX005 (ip), vehicle: Klucel (hydroxypropylcellulose) (HPC)); 97 % of control under setting [1].
Turning to `C1CCN2CC3CC(CN4CCCCC34)C2C1` (centres undefined), the T/C was 100 % of control (dose: 1.87 mg/kg/injection, schedule: Q01DX005 (ip), vehicle: saline); 101 % of control (dose: 3.75 mg/kg/injection, schedule: Q01DX005 (ip), vehicle: saline); 91 % of control (dose: 6.2 mg/kg/injection, schedule: Q01DX007 (ip), vehicle: carboxymethylcellulose (CMC)); 102 % of control (dose: 7.5 mg/kg/injection, schedule: Q01DX005 (ip), vehicle: saline); 100 % of control (dose: 12.5 mg/kg/injection, schedule: Q01DX007 (ip), vehicle: carboxymethylcellulose (CMC)); 100 % of control (dose: 15.0 mg/kg/injection, schedule: Q01DX005 (ip), vehicle: saline). Moreover, the T/C (dose: 25.0 mg/kg/injection, schedule: Q01DX005 (ip), vehicle: saline) is 92 % of control; the T/C (dose: 25.0 mg/kg/injection, schedule: Q01DX007 (ip), vehicle: carboxymethylcellulose (CMC)) is 91 % of control; the T/C under setting [2] is 99 % of control.
Consider `C[Si](C)(OC(=O)N(CCCl)CCCl)O[Si](C)(C)OC(=O)N(CCCl)CCCl`, for which the T/C runs as follows: (dose: 6.25 mg/kg/injection, schedule: Q01DX009 (ip), vehicle: saline with Tween-80) 108 % of control; (dose: 12.5 mg/kg/injection, schedule: Q01DX009 (ip), vehicle: saline with Tween-80) 124 % of control; under setting [12], 165 % of control; under setting [9], 115 % of control.
For the compound `C/C(N)=C/C(=O)Nc1ccccc1`, the T/C is 109 % of control under setting [11], 109 % of control under setting [6], 97 % of control under setting [7] and 108 % of control under setting [8].
On to `C1COCCCOCCCOCCCC2(CCCOCCCOC1)OCCO2`, for which the T/C runs as follows: (dose: 50.0 mg/kg/injection, schedule: Q01DX005 (ip), vehicle: saline with Tween-80) 102 % of control; (dose: 100.0 mg/kg/injection, schedule: Q01DX005 (ip), vehicle: saline with Tween-80) 102 % of control; (dose: 200.0 mg/kg/injection, schedule: Q01DX005 (ip), vehicle: saline with Tween-80) 101 % of control.
